From PubChem BioAssay AID256 (DTP/NCI, 2004) come the findings set out here.

The test system of the experiment is CD2F1 mice, L1210 leukemia ip, survival T/C. As to the kind of experiment: NCI In Vivo Anticancer Drug Screen. Data for tumor model L1210 Leukemia (intraperitoneal) in CD2F1 (CDF1) mice. Conditions: higher = longer survival. The method in brief: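 Activity against a transplanted murine tumor was judged by comparing the compound group with a vehicle group. The outcome in the treated animals was divided by that in the controls.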

Setting [1] is: endpoint: mean survival time, dose: 100.0 mg/kg/injection, schedule: Q04DX003 (ip), vehicle: saline with Tween-80.
Where [2] appears, read: endpoint: mean survival time, dose: 200.0 mg/kg/injection, schedule: Q04DX003 (ip), vehicle: saline with Tween-80.
Setting [3] is: endpoint: mean survival time, dose: 400.0 mg/kg/injection, schedule: Q04DX003 (ip), vehicle: saline with Tween-80.
The mark [4] stands for this setting: endpoint: mean survival time, dose: 12.5 mg/kg/injection, schedule: Q01DX005 (ip), vehicle: distilled water + Tween-80.
[5] abbreviates: endpoint: mean survival time, dose: 25.0 mg/kg/injection, schedule: Q01DX005 (ip), vehicle: distilled water + Tween-80.
Where [6] appears, read: endpoint: mean survival time, dose: 50.0 mg/kg/injection, schedule: Q01DX005 (ip), vehicle: distilled water + Tween-80.
Where [7] appears, read: endpoint: mean survival time, dose: 100.0 mg/kg/injection, schedule: Q01DX005 (ip), vehicle: distilled water + Tween-80.
Setting [8] is: endpoint: mean survival time, dose: 100.0 mg/kg/injection, schedule: Q01DX009 (ip), vehicle: saline with Tween-80.
Where [9] appears, read: endpoint: mean survival time, dose: 200.0 mg/kg/injection, schedule: Q01DX009 (ip), vehicle: saline with Tween-80.
Where [10] appears, read: endpoint: mean survival time, dose: 400.0 mg/kg/injection, schedule: Q01DX009 (ip), vehicle: saline with Tween-80.
Setting [11] is: endpoint: mean survival time, dose: 50.0 mg/kg/injection, schedule: Q01DX009 (ip), vehicle: saline with Tween-80.

Structures are written as SMILES. Where “and” joins values, the source holds several entries; their conditions need not be identical. Equal values may be shown once. Inconclusive results and toxic doses are left out.

`CCCCC(=O)OCC(=O)[C@]1(O)Cc2c(O)c3c(c(O)c2[C@@H](OC2CC(NC(=O)C(F)(F)F)C(O)C(C)O2)C1)C(=O)c1c(OC)cccc1C3=O` (stereo partly drawn): the T/C by setting is: (endpoint: mean survival time, dose: 4.0 mg/kg/injection, schedule: Q01DX009 (ip), vehicle: Klucel (hydroxypropylcellulose) (HPC)) 113 % of control; (endpoint: mean survival time, dose: 4.0 mg/kg/injection, schedule: Q01DX009 (ip), vehicle: water) 97 % of control; (endpoint: mean survival time, dose: 8.0 mg/kg/injection, schedule: Q01DX009 (ip), vehicle: Klucel (hydroxypropylcellulose) (HPC)) 118 % of control; (endpoint: mean survival time, dose: 8.0 mg/kg/injection, schedule: Q01DX009 (ip), vehicle: water) 101 % of control; (endpoint: mean survival time, dose: 16.0 mg/kg/injection, schedule: Q01DX009 (ip), vehicle: water) 106 % of control; (endpoint: mean survival time, dose: 32.0 mg/kg/injection, schedule: Q01DX009 (ip), vehicle: Klucel (hydroxypropylcellulose) (HPC)) 150 % of control. For the same compound, the T/C (endpoint: mean survival time, dose: 32.0 mg/kg/injection, schedule: Q01DX009 (ip), vehicle: water) is 111 % of control; the T/C (endpoint: mean survival time, dose: 64.0 mg/kg/injection, schedule: Q01DX009 (ip), vehicle: Klucel (hydroxypropylcellulose) (HPC)) was 167 % of control; the T/C (endpoint: mean survival time, dose: 64.0 mg/kg/injection, schedule: Q01DX009 (ip), vehicle: water) is 113 % of control; the T/C (endpoint: mean survival time, dose: 128.0 mg/kg/injection, schedule: Q01DX009 (ip), vehicle: Klucel (hydroxypropylcellulose) (HPC)) was 250 % of control; the T/C (endpoint: median survival time, dose: 13.0 mg/kg/injection, schedule: Q10HX004 (ip), vehicle: other) was 100 % of control; the T/C (endpoint: median survival time, dose: 21.6 mg/kg/injection, schedule: Q10HX004 (ip), vehicle: other) is 102 % of control. The T/C was 114 % of control (endpoint: median survival time, dose: 36.0 mg/kg/injection, schedule: Q10HX004 (ip), vehicle: other); 118 % of control (endpoint: median survival time, dose: 60.0 mg/kg/injection, schedule: Q10HX004 (ip), vehicle: other); 153 % of control (endpoint: median survival time, dose: 100.0 mg/kg/injection, schedule: Q10HX004 (ip), vehicle: other).
As to `CCC(C(N)=O)C1=CCCCC1` (stereo not drawn), the T/C was 103 % of control under setting [1], 104 % of control under setting [2] and 101 % of control under setting [3].
Take `[C-]#[O+].[C-]#[O+].[C-]#[O+].[C-]#[O+].[C-]#[O+].[C-]#[O+].[W]`: the T/C was 95 % of control under setting [1], 97 % of control under setting [2] and 101 % of control under setting [3].
`CC(=O)OC1CC2(O)C3CCC4CC(O)CCC4(C)C3CCC2(C)C1C1=CC(=O)OC1` (stereo not drawn): the T/C reads like this: (endpoint: mean survival time, dose: 100.0 mg/kg/injection, schedule: Q01DX001 (ip), vehicle: saline with Tween-80) 98 % of control; (endpoint: mean survival time, dose: 200.0 mg/kg/injection, schedule: Q01DX001 (ip), vehicle: saline with Tween-80) 101 % of control.
For `O=C(OCC1OC(n2nc(SCc3ccccc3)c(=O)[nH]c2=O)C(OC(=O)c2ccccc2)C1OC(=O)c1ccccc1)c1ccccc1` (stereo not drawn), the T/C is 93 % of control under setting [4], 95 % of control under setting [5], 97 % of control under setting [6] and 88 % of control under setting [7].
Take `COC(=O)C(=C(C)C)[N+](=O)[O-]`: the T/C was 91 % of control under setting [1], 95 % of control under setting [2] and 95 % of control under setting [3].
As for `Cc1ccc(CNC2=C(Cl)C(=O)c3ccccc3C2=O)cc1`, the T/C by setting is: (endpoint: mean survival time, dose: 6.25 mg/kg/injection, schedule: Q04DX003 (ip), vehicle: saline with Tween-80) 95 % of control; (endpoint: mean survival time, dose: 12.5 mg/kg/injection, schedule: Q04DX003 (ip), vehicle: saline with Tween-80) 98 % of control; (endpoint: mean survival time, dose: 25.0 mg/kg/injection, schedule: Q04DX003 (ip), vehicle: saline with Tween-80) 94 % of control and 97 % of control.
Regarding `O=Cc1n[nH]nc1-c1ccccc1`, the T/C is 94 % of control under setting [8]; 98 % of control under setting [1]; 100 % of control under setting [9]; 101 % of control under setting [2]; 103 % of control under setting [10]; 95 % of control under setting [3].
With `Cc1cc(C)c2nc(N)sc2c1`, the T/C is, setting by setting: (endpoint: mean survival time, dose: 25.0 mg/kg/injection, schedule: Q04DX002 (ip), vehicle: saline with Tween-80) 96 % of control; (endpoint: mean survival time, dose: 50.0 mg/kg/injection, schedule: Q04DX002 (ip), vehicle: saline with Tween-80) 93 % of control; (endpoint: mean survival time, dose: 100.0 mg/kg/injection, schedule: Q04DX002 (ip), vehicle: saline with Tween-80) 93 % of control.
Turning to `CCOC(=O)/C=C1\NC(=O)CS1`, the T/C was 97 % of control under setting [8]; 100 % of control under setting [1]; 95 % of control under setting [9]; 100 % of control under setting [2]; 103 % of control under setting [10]; 100 % of control under setting [3].
In the case of `COc1cc(OC)c(NC(=O)OCC2CCCO2)cc1Cl` (stereo not drawn), the T/C runs as follows: under setting [11], 90 % of control; under setting [8], 97 % of control; under setting [9], 94 % of control.
As for `CC(=O)Oc1ccc(/C=N/NC(N)=S)nc1`, the T/C (endpoint: mean survival time, dose: 37.5 mg/kg/injection, schedule: Q01DX009 (ip), vehicle: saline with Tween-80) is 160 % of control; the T/C (endpoint: mean survival time, dose: 75.0 mg/kg/injection, schedule: Q01DX009 (ip), vehicle: saline with Tween-80) was 152 % of control; the T/C (endpoint: mean survival time, dose: 150.0 mg/kg/injection, schedule: Q01DX009 (ip), vehicle: saline with Tween-80) was 165 % of control.
Consider `N#CSCc1cc(Cl)c(CSC#N)cc1Cl`, for which the T/C runs as follows: (endpoint: mean survival time, dose: 75.0 mg/kg/injection, schedule: Q04DX003 (ip), vehicle: saline) 102 % of control; (endpoint: mean survival time, dose: 150.0 mg/kg/injection, schedule: Q04DX003 (ip), vehicle: saline) 98 % of control; (endpoint: mean survival time, dose: 300.0 mg/kg/injection, schedule: Q04DX003 (ip), vehicle: saline) 102 % of control.
In the case of `O=Cc1cc2c(c3ccccc13)CCCC2`, the T/C runs as follows: under setting [8], 97 % of control; under setting [9], 98 % of control; under setting [10], 98 % of control.
Regarding `O=C(/C(=N\N=C\c1c(O)ccc2ccccc12)c1ccccc1)c1ccccc1`, the T/C was 93 % of control under setting [8], 90 % of control under setting [9] and 92 % of control under setting [10].
Take `C=CC1CN(CCc2cc3ccccc3[nH]2)CCC1CC(=O)OCC` (stereo not drawn): the T/C is 97 % of control under setting [1], 101 % of control under setting [2] and 94 % of control under setting [3].
In the case of `O=C(O)/C=C/C(=O)NCCCCCCNC(=O)/C=C/C(=O)O`, the T/C was 91 % of control (endpoint: mean survival time, dose: 100.0 mg/kg/injection, schedule: Q01DX009 (ip), vehicle: saline); 94 % of control (endpoint: mean survival time, dose: 200.0 mg/kg/injection, schedule: Q01DX009 (ip), vehicle: saline); 91 % of control (endpoint: mean survival time, dose: 400.0 mg/kg/injection, schedule: Q01DX009 (ip), vehicle: saline).
Regarding `CC1=C(CNc2ncnc3nc[nH]c23)CC=CC1`, the T/C was 88 % of control under setting [8]; 95 % of control under setting [1]; 92 % of control under setting [9]; 88 % of control under setting [10]; 98 % of control under setting [3].
For `Cc1ccc(S(=O)(=O)N/N=C/c2ccncc2)cc1`, the T/C (endpoint: mean survival time, dose: 25.0 mg/kg/injection, schedule: Q01DX009 (ip), vehicle: Klucel (hydroxypropylcellulose) (HPC)) is 104 % of control; the T/C (endpoint: mean survival time, dose: 50.0 mg/kg/injection, schedule: Q01DX009 (ip), vehicle: Klucel (hydroxypropylcellulose) (HPC)) is 105 % of control; the T/C (endpoint: mean survival time, dose: 100.0 mg/kg/injection, schedule: Q01DX009 (ip), vehicle: Klucel (hydroxypropylcellulose) (HPC)) is 98 % of control; the T/C (endpoint: mean survival time, dose: 200.0 mg/kg/injection, schedule: Q01DX009 (ip), vehicle: Klucel (hydroxypropylcellulose) (HPC)) was 98 % of control.
As to `[Na+]`, the T/C was 105 % of control (endpoint: median survival time, dose: 25.0 mg/kg/injection, schedule: Q01DX009 (ip), vehicle: water); 102 % of control (endpoint: median survival time, dose: 50.0 mg/kg/injection, schedule: Q01DX009 (ip), vehicle: water); 93 % of control (endpoint: median survival time, dose: 100.0 mg/kg/injection, schedule: Q01DX009 (ip), vehicle: water); 100 % of control (endpoint: median survival time, dose: 200.0 mg/kg/injection, schedule: Q01DX009 (ip), vehicle: water); 105 % of control (endpoint: median survival time, dose: 400.0 mg/kg/injection, schedule: Q01DX009 (ip), vehicle: water).
Take `CCCCCC(O)/C=C/Sc1n[nH]c(=O)[nH]c1=O` (stereo not drawn): the T/C is 104 % of control under setting [4]; 94 % of control under setting [5]; 98 % of control under setting [6]; 90 % of control under setting [7]; 93 % of control (endpoint: mean survival time, dose: 200.0 mg/kg/injection, schedule: Q01DX005 (ip), vehicle: distilled water + Tween-80).
Regarding `O=C(O)c1cccc2c1-c1c(cccc1[N+](=O)[O-])C2`, the T/C by setting is: under setting [11], 96 % of control; under setting [8], 97 % of control; under setting [1], 101 % of control; under setting [9], 91 % of control; under setting [2], 100 % of control.
